Results as given in PMC3462190, “A Peptidic Unconjugated GRP78/BiP Ligand Modulates the Unfolded Protein Response and Induces Prostate Cancer Cell Death” (PLoS ONE, 2012).
Where no end group is shown, it is not given here.

Tests used:
22Rv.1 cells = assay: Clonogenic assay; type: cell-based; conditions: neomycin selection, colonies quantified; mean ± SEM of at least three independent experiments
Source text: Figure 5 An N-terminal unfolded fragment of the Bag-1 peptide is sufficient to reduce tumor cell growth. A. Schematic diagram of the Bag-1 peptide and its deletion mutants. The ubiquitin-like domain is represented in blue and the BAG domain in red. The numbers refer to the amino acid positions of the different domains. The amino acid residues are numbered following the numbering for Bag-1L. B. Prediction of the secondary structure of the Bag-1 peptide, showing an N-terminal β-hairpin from the ubiquitin-like domain (blue) and a C-terminal α-helix from the BAG domain (red). C. Normalized circular dichroism spectra of the Bag-1 peptides. 30 µM of the Bag-1 peptide were measured in 20 mM KHPO4 buffer, pH 6.8 (black line). Its α-helical content was estimated to be approximately 25% by deconvolution of the spectra (red line). 12 µM of the N-term peptide (green line) and 11 µM of C-term (blue line) were measured under the same conditions. D. ^1H^15N-HSQC NMR spectrum of ^15N-labeled Bag-1 peptide (202–269) in 20 mm KHPO4 buffer, pH 6.8, at 23°C. […] The Hδ and Hε side chain signals of asparagine and glutamine are connected by thin lines. E. The N-terminal region of the Bag-1 peptide is important for GRP78 binding. 400 µg of 22Rv.1 cell lysate were incubated with glutathione-agarose beads carrying 15 µg GST-N-term peptide (lane 2), GST-C-term peptide (lane 3), GST-ΔUbi peptide (lane 4), GST-Bag-1(202–269) peptide (lane 5) and GST (lane 6). The beads were washed and the bound proteins were separated by 10% SDS-PAGE and subjected to Western blotting using antibodies directed against GRP78 or GST. […] F. Clonogenic assay of the Bag-1 peptides expressed in 22Rv.1 cells. Cells transfected with the indicated constructs were selected in medium containing neomycin and the colonies formed were quantified. Shown are the mean value ±SEM of at least three independent experiments using three different plasmid preparations (*p<0.05). […] Six-week old athymic nude mice were injected subcutaneously on both flanks with 5×10^6 cells of each stable clone. Tumor size was measured once per week using a caliper and expressed as tumor volume in mm^3. Shown are the tumor volumes of clones transfected with the N-terminal peptide (G), the C-terminal peptide (H) and the ΔUbi peptide (I). Each point represents the mean volume and standard deviation of at least 5 to 10 tumors.
(§1) Figure 6 Selectivity of action of the Bag-1 peptide. A Amino acid sequence of the 19mer peptide and its deletion mutants. B GST pull-down assay performed incubating 400 µg of 22Rv.1 cell lysate and 25 µg of GST-fused deletion mutants of the 19mer peptide. After the pull-down experiment, Western blots were carried out with anti-GRP78/BiP and GST antibodies. C. Fluorescence polarization (FP) assays with a 10 nM FITC-labeled 7-mer Bag-1 peptide and dilutions of the GST-fused substrate binding domain of GRP78 in 60 µl of Tris-GSH buffer (50 mM Tris, 10 mM reduced glutathione and 0.1% BSA, pH 8.0). Triplicate samples were measured after 5 h of incubation at room temperature with an Infinite F-200 reader (Tecan) with excitation at 490 nm and emission at 535 nm. Binding constants were determined from three independent experiments using non-linear regression in Sigma Plot 10.0. D. Competition assays with a complex of 10 nM of FITC-labeled Bag-1 7-mer peptide and 0.75 mg/ml GST-fused GRP78 substrate binding domain was measured against a dilution series from 100 µM to 0.1 nM of wild-type Bag-1 7-mer peptide (filled line) or triple mutant peptide (dotted line) in 40 µl of Tris-GSH buffer. FITC-peptide and the FITC-peptide-protein complex were used as controls. Fluorescence polarization was determined as described above and IC50 values were determined in Sigma Plot. […]

[1] = target: T1, GST-fused GRP78 substrate binding domain (Homo sapiens, UniProt P11021); assay: Fluorescence polarization competition assay; conditions: displacement of 10 nM FITC-labeled Bag-1 7-mer from 0.75 mg/ml GST-GRP78 SBD; competitor 100 µM to 0.1 nM, Tris-GSH buffer
T1 construct: GRP78-SBD (GRP78 409–651); made in house
T1 sequence (P11021 409-651): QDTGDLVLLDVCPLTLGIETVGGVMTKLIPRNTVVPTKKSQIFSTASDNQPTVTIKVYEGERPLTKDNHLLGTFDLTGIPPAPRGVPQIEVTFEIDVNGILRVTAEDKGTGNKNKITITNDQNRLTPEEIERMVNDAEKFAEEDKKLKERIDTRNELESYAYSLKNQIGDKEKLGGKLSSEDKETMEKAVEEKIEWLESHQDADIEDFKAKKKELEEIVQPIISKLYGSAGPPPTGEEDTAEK
Procedure: Fluorescence polarization assays were carried out using an Infinite F-200 reader (Tecan) with excitation at 490 nm and emission at 535 nm.
as §1, with “[…] The colonies were stained” for “FITC-peptide”, “quantified.” for “the FITC-peptide-protein complex were used as controls. Fluorescence polarization was determined as described above and IC50 values were determined in Sigma Plot.”

[2] = system: unfolded protein response in 22Rv.1 cells; assay: UPR modulation, Western blot / PCR in 22Rv.1 cells; type: cell-based
Procedure: Unless otherwise stated, stable transfection was carried out in 22Rv.1 or BPH-1 cells with 10 µg of plasmid DNA using FuGene 6™ (Roche Diagnostics Mannheim, Germany) Stably transfected 22Rv.1 cells were selected with 0.8 mg/ml while BPH-1 cell clones were selected with 1.2 mg/ml G418. LNCaP, PC3, DU145, PNT-2 and RWPE-1 cell clones were selected with 1 mg/ml G418. Specific downregulation of GRP78 expression was achieved by transfecting siRNA-duplexes (GRP78∶5′-[…]-3′) twice in 72 h using HiPerfect™ (Qiagen Hilden, Germany). siRNA against GFP (5′-[…]-3′) was used as a control. Western blot analysis was performed as previously described.
Figure 3 The Bag-1 peptide modulates the UPR and sensitizes 22Rv.1 cells to ER-stress. A. UPR modulation upon Bag-1 peptide overexpression. Pooled clones of 22Rv.1 cells transfected with pcDNA3.1-HA-Bag-1 68 amino acid peptide or an empty expression vector were treated with 300 nM thapsigargin (TG) for the indicated time points. Cells were lysed and subjected to Western blot analysis using the indicated antibodies or phospho-specific antibodies. B. The Bag-1 peptide sensitizes 22Rv.1 cells to ER-stress induced apoptosis. Pooled clones of 22Rv.1 transfected with the Bag-1 peptide or the empty expression vector were treated with thapsigargin (TG) or glucose-starved (GS) for 24 h. The cells were lysed and subjected to Western blot analysis using anti-PARP and caspase 4 specific antibodies. Anti-HA antibody was used to detect the HA-Bag-1 peptide. […] C. […] Pooled clones of 22Rv.1 expressing HA-tagged Bag-1 peptide or an empty expression vector were transfected with GRP78/BiP siRNA or control GFP siRNA. The cells were lysed and Western blot was carried out with anti-PARP, anti-GRP78 and anti-HA antibodies. β-actin antibody was used to determine the level of protein loaded on the gel.
(§2) A. Real time PCR analysis of ATF6 gene expression following thapsigargin (300 nM) treatment for the indicated time points in 22Rv.1 cell clones with empty vector control (open bars) and peptide-expressing clones (filled bars). The RNA was extracted using PeqGold RNA pure (PeqLab, Germany) kit according to manufacturer’s instructions. For gene expression analysis, the following primers were used: Rib36 forward 5′-[…]-3′; reverse 5′-CCGGATATGAGGCAGCAG-3′; ATF6 forward 5′-[…]-3′; reverse 5′-[…]-3′. Each bar represents the mean of three independent experiments ± SEM. *p<0.05. B. Western blot analysis of ATF6 and its cleaved product (cATF6) in LNCaP cells stably expressing the empty vector control or the Bag-1 peptide. Anti-ATF6 specific antibody and an anti-HA specific antibody were used for the Western blot. β-actin antibody was used to determine equal loading control. Mouse monoclonal anti-ATF6 antibody was purchased from Imgenex (Hamburg, Germany), mouse monoclonal anti-HA antibody (HA.11 clone 16B12) was purchased from Covance (Munich, Germany) and anti-β-actin antibody was purchased from Abcam (Cambridge, UK). (TIF) Click here for additional data file.
Supplementary file pone.0045690.s004.tif: Figure S4 The Bag-1 peptide induces GCN2 phosphorylation. 22Rv.1 cells stably expressing the empty vector control or the Bag-1 peptide were treated with thapsigargin (300 nM) for 16 h and subjected to Western blot analysis using anti-phospho-GCN2, GCN2 and HA-specific antibodies. The filters used in this experiment for the GCN2 signals are the same filters used in Figure 3A. The HA-Bag-1 peptide and the β-actin signals are therefore identical to that of Figure 3A. (TIF) Click here for additional data file.

[3] = system: LNCaP prostate cancer cells; assay: ATF6 Western blot in LNCaP cells; type: cell-based; conditions: thapsigargin
Procedure: as §2

[4] = target: T2, GST-fused GRP78-SBD (GRP78 409-651) (UniProt P11021 409-651); assay: fluorescence polarisation; 10 nM FITC-labeled 7-mer peptide with dilutions of GST-fused GRP78 SBD in Tris-GSH buffer (50 mM Tris, 10 mM reduced glutathione, 0.1% BSA, pH 8.0), 5 h at room temperature; conditions: both partners purified
T2 construct: Used on beads in pull-downs and in solution (GST kept) in fluorescence polarisation; also called GST-GRP78(SBD); source: bacterially purified GST fusion (pGEX4T.1)
T2 sequence (P11021 409-651): as above

[5] = target: T2, GST-fused GRP78-SBD (GRP78 409-651); assay: fluorescence polarisation; competition: complex of 10 nM FITC-labeled 7-mer peptide and 0.75 mg/ml GST-fused GRP78 SBD against 100 µM to 0.1 nM unlabeled peptide in Tris-GSH buffer; conditions: both partners purified

## 19-mer mutant: 202–220 amino acid peptide with mutated core (VML exchanged with alanine residues) (TPLSALGIQDGCRAAAIGK; also: HA tag, end not given here)
22Rv.1 cells
  22Rv.1 growth in clonogenic assay: significantly reduced the ability of the 19 amino acid sequence to inhibit 22Rv.1 cell growth

## RAAAIGK [RAAAIGK]
[1]
  IC50: > 100 µM

## C/C=C(/C)C(=O)O[C@H]1C(C)=C2[C@H]([C@@H]1OC(=O)CCCCCCC)[C@@](C)(OC(C)=O)C[C@H](OC(=O)CCC)[C@@]1(O)[C@H]2OC(=O)[C@@]1(C)O [thapsigargin, reference compound]
[2]; 22Rv.1 cells, thapsigargin 300 nM
  ATF6 expression: enhanced the expression of this gene
[2]; 22Rv.1 vector control cells, 300 nM thapsigargin
  UPR activation: all three arms of the UPR were activated
[3]
  ATF6 expression (protein level): also seen in LNCaP prostate cancer cells at the protein level

B1: FITC-labeled 7-mer Bag-1 peptide (214RVMLIGK220) (peptide)
peptide: RVMLIGK
modifications: also: FITC label, place not given here
notes: core peptide of Bag-1, residues 214-220 on Bag-1L numbering; also called FITC-peptide
[4]
  Kd: 5.7 ± 0.8 µM

B2: triple mutant Bag-1 7-mer peptide (214RAAAIGK220) (peptide)
chain: RAAAIGK
[5]
  IC50: > 100 µM

B3: wild-type Bag-1 7-mer peptide (214RVMLIGK220), unlabeled (peptide)
peptide: RVMLIGK
notes: core peptide of Bag-1, residues 214-220 on Bag-1L numbering; also called seven amino acid core peptide
[5]
  IC50: 2.6 ± 0.5 µM
